Source: patent publication US20230391760A1, “HETEROCYCLIC GLP-1 AGONISTS” (Gasherbrum Bio, Inc., priority 2020, published 2023)

Biological target: GLP-1 Receptor (Homo sapiens, UniProt P43220)
Test: GLP-1R agonist cAMP stimulation assay (HEK293/GLP1R/CRE-LUC cells, cAMP dynamic 2 Kit)
Format: cell-based
Conditions: HEK293/CRE-Luc cell line stably expressing the GLP-1 Receptor, 30 min at 37° C.
Protocol: Activation of GLP-1 receptor is known to stimulate cyclic AMP (cAMP) production in cells which indicates primary coupling to the Gαs subunit of the G protein heterotrimeric complex. […] To optimize functional activity directed toward Gαs coupling, a HEK293/CRE-Luc cell line developed by HDB stably expressing the GLP-1 Receptor was used. 200×concentration of compound working solutions were prepared (Agilent Technologies Bravo) with 1/2 log serial dilution in 384-well Echo LDV plate (Labcyte, Cat #LP-0200). 50 nL/well 200× concentration of compound working solutions were moved to 384-well white low volume plate (Greiner,Cat #784075) using Labcyte ECHO550. 1×10^5 cells/mL HEK293/GLP1R/CRE-LUC(HD Biosciences) cell suspensions prepared with assay buffer[DPBS containing 0.5 mM IBMX(Sigma, Cat #15879) and 0.1% BSA (GENVIEW, Cat #FA016-100 g)], 10 uL cell suspensions were added to each well of previous generated assay plate which already contains 50 nl compound at 200×concentration using ThermoFisher Multidrop Combi (1000 cells/well). Seal the plate and incubate at 37° C. with 5% CO2 for 30 min. After incubation the cAMP assay signal was generated using cAMP dynamic 2 Kit (Cisbio). 5 μL cAMP-d2 working solution was added to each well, followed with 5 μL Anti-cAMP antibody-cryptate working solution added to each well using ThermoFisher Multidrop Combi. Incubate at room temperature for 1 hour protected from light.

GLP-1 Receptor, sequence (P43220 24-463, species assumed): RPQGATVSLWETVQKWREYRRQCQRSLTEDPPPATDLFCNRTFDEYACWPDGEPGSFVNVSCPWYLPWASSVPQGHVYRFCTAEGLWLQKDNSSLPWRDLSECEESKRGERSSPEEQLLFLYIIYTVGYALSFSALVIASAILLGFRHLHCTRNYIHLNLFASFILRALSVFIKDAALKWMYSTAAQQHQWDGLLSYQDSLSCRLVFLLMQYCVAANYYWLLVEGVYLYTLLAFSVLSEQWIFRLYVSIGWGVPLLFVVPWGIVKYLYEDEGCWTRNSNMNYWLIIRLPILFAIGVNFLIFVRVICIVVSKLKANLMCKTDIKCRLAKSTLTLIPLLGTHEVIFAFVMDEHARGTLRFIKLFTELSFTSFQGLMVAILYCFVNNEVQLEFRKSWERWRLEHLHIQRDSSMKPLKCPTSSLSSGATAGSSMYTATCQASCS

SMILES | EC50 [nM]
Fc1cc(Cl)ccc1COc1ccc(F)c(N2CCN(Cc3nc4cc(-c5nnc(C(F)(F)F)[nH]5)cnc4n3C[C@@H]3CCO3)CC2)n1 [Compound 513a, 1-{6-[(4-chloro-2-fluorophenyl)methoxy]-3-fluoropyridin-2-yl}-4-[(3-{[(2S)-oxetan-2-yl]methyl}-6-[5-(trifluoromethyl)-4H-1,2,4-triazol-3-yl]-3H-imidazo[4,5-b]pyridin-2-yl)methyl]piperazine] | 0.064
C[C@]1(c2ccc(Cl)cn2)Oc2cccc(C3CCN(Cc4nc5cc(-c6nnn[nH]6)nnc5n4C[C@@H]4CCO4)CC3)c2O1 [Compound 461a, 5-chloro-2-[(2S)-2-methyl-4-{1-[(7-{[(2S)-oxetan-2-yl]methyl}-3-(1H-1,2,3,4-tetrazol-5-yl)-7H-imidazo[4,5-c]pyridazin-6-yl)methyl]piperidin-4-yl}-2H-1,3-benzodioxol-2-yl]pyridine] | 0.23
CC1(c2ccc(Cl)cc2F)Oc2cccc(C3CCN(Cc4nc5cc(-c6nnc(C(F)F)[nH]6)ccc5n4C[C@@H]4CCO4)CC3)c2O1 (stereo partly drawn) [Compound 227a, 2-({4-[2-(4-chloro-2-fluorophenyl)-2-methyl-2H-1,3-benzodioxol-4-yl]piperidin-1-yl}methyl)-5-[5-(difluoromethyl)-4H-1,2,4-triazol-3-yl]-1-{[(2S)-oxetan-2-yl]methyl}-1H-1,3-benzodiazole] | 0.094
C[C@H]1CN(c2ccc(F)c(OCc3ccc(Cl)cc3F)c2)CCN1Cc1nc2cc(-c3nnc(C(F)(F)F)[nH]3)nnc2n1C[C@@H]1CCO1 [Compound 518a, (2S)-4-{3-[(4-chloro-2-fluorophenyl)methoxy]-4-fluorophenyl}-2-methyl-1-[(7-{[(2S)-oxetan-2-yl]methyl}-3-[5-(trifluoromethyl)-4H-1,2,4-triazol-3-yl]-7H-imidazo[4,5-c]pyridazin-6-yl)methyl]piperazine] | 0.41
O=C(Nc1ccc2c(c1)nc(CN1CCC(c3cccc(OCc4ccc(Cl)cc4F)n3)CC1)n2C[C@@H]1CCO1)C1CCCC1 [Compound 151a, N-{2-[(4-{6-[(4-chloro-2-fluorophenyl)methoxy]pyridin-2-yl}piperidin-1-yl)methyl]-1-{[(2S)-oxetan-2-yl]methyl}-1H-1,3-benzodiazol-5-yl}cyclopentanecarboxamide] | 0.8
C[C@]1(c2ccc(Cl)cn2)Oc2cccc(C3CCN(Cc4nc5cc(-c6noc(=O)[nH]6)nnc5n4C[C@@H]4CCO4)CC3)c2O1 [Compound 463a, 3-[6-({4-[(2S)-2-(5-chloropyridin-2-yl)-2-methyl-2H-1,3-benzodioxol-4-yl]piperidin-1-yl}methyl)-7-{[(2S)-oxetan-2-yl]methyl}-7H-imidazo[4,5-c]pyridazin-3-yl]-4,5-dihydro-1,2,4-oxadiazol-5-one] | 0.35
C[C@H]1CN(c2ccc(F)c(OCc3ccc(C#N)cc3F)c2)CCN1Cc1nc2cc(-c3nnc(C(F)(F)F)[nH]3)nnc2n1C[C@@H]1CCO1 [Compound 522a, 3-fluoro-4-({2-fluoro-5-[(3S)-3-methyl-4-[(7-{[(2S)-oxetan-2-yl]methyl}-3-[5-(trifluoromethyl)-4H-1,2,4-triazol-3-yl]-7H-imidazo[4,5-c]pyridazin-6-yl)methyl]piperazin-1-yl]phenoxy}methyl)benzonitrile] | 0.46
O=C(Nc1ccc2c(c1)nc(CN1CCC(c3cccc(OCc4ccc(Cl)cc4F)n3)CC1)n2C[C@@H]1CCO1)[C@@H]1COC2(CCC2)C1 [Compound 201a, (7S)—N-{2-[(4-{6-[(4-chloro-2-fluorophenyl)methoxy]pyridin-2-yl}piperidin-1-yl)methyl]-1-{[(2S)-oxetan-2-yl]methyl}-1H-1,3-benzodiazol-5-yl}-5-oxaspiro[3.4]octane-7-carboxamide] | 3.1
CC1(c2ccc(Cl)cn2)Oc2cccc(C3CCN(Cc4nc5cc(-c6nnc(C(F)(F)F)[nH]6)ccc5n4C[C@@H]4CCO4)CC3)c2O1 (stereo partly drawn) [Compound 257a, 2-({4-[2-(5-chloropyridin-2-yl)-2-methyl-2H-1,3-benzodioxol-4-yl]piperidin-1-yl}methyl)-1-{[(2S)-oxetan-2-yl]methyl}-5-[5-(trifluoromethyl)-4H-1,2,4-triazol-3-yl]-1H-1,3-benzodiazole] | 0.098
CC1(c2ccc(Cl)cn2)Oc2cccc(C3CCN(Cc4nc5cc(-c6nnc(C(F)(F)F)[nH]6)ccc5n4CC4(C#N)CC4)CC3)c2O1 (stereo not shown) [Compound 415, 1-{[2-({4-[2-(5-chloropyridin-2-yl)-2-methyl-2H-1,3-benzodioxol-4-yl]piperidin-1-yl}methyl)-5-[5-(trifluoromethyl)-4H-1,2,4-triazol-3-yl]-1H-1,3-benzodiazol-1-yl]methyl}cyclopropane-1-carbonitrile] | 0.14

Compounds with a lower EC50, results first:

EC50 [nM] | SMILES
0.057 | Fc1cc(Cl)ccc1COc1nc(C2CCN(Cc3nc4cc(-c5nnc(C(F)(F)F)[nH]5)ncc4n3C[C@@H]3CCO3)CC2F)ccc1F (stereo partly drawn) [Compound 515a, 2-[(4-chloro-2-fluorophenyl)methoxy]-3-fluoro-6-[(3,4-trans)-3-fluoro-1-[(3-{[(2S)-oxetan-2-yl]methyl}-6-[5-(trifluoromethyl)-4H-1,2,4-triazol-3-yl]-3H-imidazo[4,5-c]pyridin-2-yl)methyl]piperidin-4-yl]pyridine]
0.033 | C[C@]1(c2ccc(Cl)cc2F)Oc2cccc(C3CCN(Cc4nc5cc(-c6nnc(C(F)(F)F)[nH]6)ccc5n4CC4(C#N)CC4)CC3)c2O1 [Compound 412a, 1-{[2-({4-[(2S)-2-(4-chloro-2-fluorophenyl)-2-methyl-2H-1,3-benzodioxol-4-yl]piperidin-1-yl}methyl)-5-[5-(trifluoromethyl)-4H-1,2,4-triazol-3-yl]-1H-1,3-benzodiazol-1-yl]methyl}cyclopropane-1-carbonitrile]
0.031 | CC1(c2ccc(Cl)cc2F)Oc2cccc(C3CCN(Cc4nc5cc(-c6noc(=O)[nH]6)ccc5n4CC4(C#N)CC4)CC3)c2O1 (stereo not shown) [Compound 231a, 1-((2-((4-(2-(4-chloro-2-fluorophenyl)-2-methylbenzo[d][1,3]dioxol-4-yl)piperidin-1-yl)methyl)-5-(5-oxo-4,5-dihydro-1,2,4-oxadiazol-3-yl)-1H-benzo[d]imidazol-1-yl)methyl)cyclopropane-1-carbonitrile]
0.012 | N#Cc1ccc(COc2cccc(C3CCN(Cc4nc5cc(-c6nnc(C(F)(F)F)[nH]6)cnc5n4C[C@@H]4CCO4)CC3)n2)c(F)c1 [Compound 325a, 3-fluoro-4-{[(6-{1-[(3-{[(2S)-oxetan-2-yl]methyl}-6-[5-(trifluoromethyl)-4H-1,2,4-triazol-3-yl]-3H-imidazo[4,5-b]pyridin-2-yl)methyl]piperidin-4-yl}pyridin-2-yl)oxy]methyl}benzonitrile]
0.0065 | C[C@]1(c2ccc(Cl)cc2F)Oc2cccc(C3CCN(Cc4nc5cc(-c6nnn[nH]6)ncc5n4C[C@@H]4CCO4)CC3)c2O1 [Compound 417a, 4-[(2S)-2-(4-chloro-2-fluorophenyl)-2-methyl-2H-1,3-benzodioxol-4-yl]-1-[(3-{[(2S)-oxetan-2-yl]methyl}-6-(1H-1,2,3,4-tetrazol-5-yl)-3H-imidazo[4,5-c]pyridin-2-yl)methyl]piperidine]
0.0063 | N#Cc1nnc(-c2cc3nc(CN4CCC(c5cccc(OCc6ccc(Cl)cc6F)n5)CC4)n(C[C@@H]4CCO4)c3cn2)[nH]1 [Compound 484a, 5-{2-[(4-{6-[(4-chloro-2-fluorophenyl)methoxy]pyridin-2-yl}piperidin-1-yl)methyl]-3-{[(2S)-oxetan-2-yl]methyl}-3H-imidazo[4,5-c]pyridin-6-yl}-4H-1,2,4-triazole-3-carbonitrile]
